Assay results as given in ChEMBL document CHEMBL6096690, “Synthesis and Biological Evaluation of Peripheral HTR2A Antagonists for Colorectal Cancer” (J Med Chem, 2025).

Legend:
[1] = molecular target: 5-hydroxytryptamine receptor 2A (Homo sapiens, UniProt P28223); assay: Antagonist activity at 5HTR2A (unknown origin) assessed as inhibition of 5-HTR2A
hERG (KCNH2) = hERG (KCNH2) (Homo sapiens, UniProt Q12809); assay: Inhibition of hERG at 10 uM relative to control; type: toxicity
Chain of hERG (KCNH2) (Q12809 whole entry): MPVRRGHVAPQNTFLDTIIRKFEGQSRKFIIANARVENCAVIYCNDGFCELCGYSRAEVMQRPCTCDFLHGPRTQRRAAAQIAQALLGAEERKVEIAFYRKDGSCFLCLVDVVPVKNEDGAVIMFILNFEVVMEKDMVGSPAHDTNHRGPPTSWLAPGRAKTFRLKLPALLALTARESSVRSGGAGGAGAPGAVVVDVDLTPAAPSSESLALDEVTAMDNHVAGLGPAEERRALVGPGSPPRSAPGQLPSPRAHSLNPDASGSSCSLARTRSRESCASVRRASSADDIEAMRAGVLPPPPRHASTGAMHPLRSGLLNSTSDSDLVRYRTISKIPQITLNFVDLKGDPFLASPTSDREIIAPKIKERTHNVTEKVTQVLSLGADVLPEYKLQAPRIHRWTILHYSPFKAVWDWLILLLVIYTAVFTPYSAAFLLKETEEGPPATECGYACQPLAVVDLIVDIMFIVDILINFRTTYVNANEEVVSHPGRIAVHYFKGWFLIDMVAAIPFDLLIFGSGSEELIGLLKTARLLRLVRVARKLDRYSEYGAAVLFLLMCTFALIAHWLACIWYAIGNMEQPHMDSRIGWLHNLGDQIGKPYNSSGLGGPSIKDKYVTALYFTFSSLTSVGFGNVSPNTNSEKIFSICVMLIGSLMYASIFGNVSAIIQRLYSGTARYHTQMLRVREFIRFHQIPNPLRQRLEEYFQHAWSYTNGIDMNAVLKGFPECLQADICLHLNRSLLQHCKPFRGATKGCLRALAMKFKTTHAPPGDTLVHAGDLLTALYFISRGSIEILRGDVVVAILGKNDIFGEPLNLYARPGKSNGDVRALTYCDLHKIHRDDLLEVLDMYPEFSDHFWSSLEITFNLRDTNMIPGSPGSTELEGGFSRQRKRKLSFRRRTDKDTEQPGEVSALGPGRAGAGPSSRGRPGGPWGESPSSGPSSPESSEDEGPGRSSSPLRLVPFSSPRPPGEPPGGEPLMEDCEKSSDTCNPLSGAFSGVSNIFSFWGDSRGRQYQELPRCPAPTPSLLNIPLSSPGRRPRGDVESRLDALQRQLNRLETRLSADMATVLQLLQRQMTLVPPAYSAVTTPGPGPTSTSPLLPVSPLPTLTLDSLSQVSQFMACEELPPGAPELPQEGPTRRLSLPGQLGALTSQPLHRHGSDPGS

Chain of 5-hydroxytryptamine receptor 2A (P28223 whole entry): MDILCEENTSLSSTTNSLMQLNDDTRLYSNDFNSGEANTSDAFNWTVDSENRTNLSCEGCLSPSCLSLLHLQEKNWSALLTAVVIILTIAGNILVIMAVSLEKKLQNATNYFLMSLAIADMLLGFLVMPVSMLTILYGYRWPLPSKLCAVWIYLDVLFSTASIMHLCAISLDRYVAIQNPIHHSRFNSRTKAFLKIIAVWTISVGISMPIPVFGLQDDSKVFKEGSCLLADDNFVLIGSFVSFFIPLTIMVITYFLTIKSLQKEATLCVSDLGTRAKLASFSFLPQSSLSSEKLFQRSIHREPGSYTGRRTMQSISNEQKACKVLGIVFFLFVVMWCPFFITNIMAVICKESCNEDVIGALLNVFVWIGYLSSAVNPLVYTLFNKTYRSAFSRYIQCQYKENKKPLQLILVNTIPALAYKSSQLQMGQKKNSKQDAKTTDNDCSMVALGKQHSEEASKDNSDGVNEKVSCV

| IC50 [1] [nM] | SMILES | inhibition at 10 µM (hERG (KCNH2)) [%] |
| --- | --- | --- |
| 820 | O=C(NCc1ccc(OCC(O)CN2CCC(C3c4ccc(Cl)cc4CCc4cccnc43)CC2)cc1)N(Cc1ccc(F)cc1)C1CCNCC1 (stereo unspecified) |  |
| 54.2 | O=C(NCc1ccc(OCC(O)CN2CCN(c3nsc4ccccc34)CC2)cc1)N(Cc1ccc(F)cc1)C1CCNCC1 (stereo unspecified) |  |
| 46.5 | O=C(NCc1ccc(OCC(O)CN2CCN(c3noc4cc(F)ccc34)CC2)cc1)N(Cc1ccc(F)cc1F)C1CCNCC1 (stereo unspecified) | 87.7 |
| 49.5 | O=C(NCc1ccc(OCC(O)CN2CCN(c3noc4cc(F)ccc34)CC2)cc1)N(Cc1cc(F)c(F)cc1F)C1CCNCC1 (stereo unspecified) | 72.9 |
